Source: patent publication US20230095980A1, “Sodium 2-[(4S)-8-fluoro-2-[4-(3-methoxyphenyl)piperazin-1-yl]-3-[2-methoxy-5-(trifluoromethyl)phenyl]-4H-quinazolin-4-yl]acetate and pharmaceutical compositions thereof” (AIC246 AG & Co. KG, priority 2020, published 2023)

Key:
[1] = intravenous formulation in neonates; cited from earlier work
[2] = Excipient-free formulation: reconstitution with water for injection and dilution in infusion bags; format: physicochemical
Method: 0.3164 g of letermovir sodium trihydrate salt was directly weighed into a washed, sterilized and dried 20R glass vial. […] Six vials were prepared accordingly. The vials were stoppered and crimp capped.
14 ml of water for injection were added to each 20R vial containing 280 mg of Letermovir free base resulting in concentration of 20 mg/ml. Water for injection was added after removal of the flip-off disk from the vial by using a 20-ml disposable syringe plus a 20G needle of 40 mm length.
The content of the vial was carefully homogenized by gentle manual rotation. In parallel, 2 empty infusion bags were filled with 288 ml of each parenteral admixture diluents (Ringer's lactate, 0.9% saline solution and 5% dextrose solution, respectively) by using a 50-ml syringe and a Mini-Spike. 12 ml of the content of the vial was withdrawn by using a 20-ml disposable syringe plus a 20G needle of 40 mm length. The total volume of 12 ml was directly injected into the diluent containing infusion bag. After the injection, the content of the bag was carefully homogenized by gentle manual rotation. Two independent preparations of each diluent were used, i.e., in total 6 infusion bags were prepared. Following, the prepared infusion bags were put on storage at room temperature (protected from light) and another sample was analyzed after 24 hours (T24 h).

SMILES	PDE (permissible daily exposure) [1]	pH ([2]; other two diluents (0.9% saline solution, 5% dextrose solution))	precipitation based on visual inspection ([2]; over 24 hours at room temperature, Ringer's lactate, 0.9% saline, 5% dextrose)	pH ([2]; solution reconstituted with Ringer's lactate, no pH adjustment)
OC[C@H]1O[C@@H](O[C@H]2[C@H](O)[C@@H](O)C(O)O[C@@H]2CO)[C@H](O)[C@@H](O)[C@H]1O (stereo partly drawn) [Lactose]	5.7 mg/day	–	–	–
OC[C@@H](O)[C@@H](O)[C@H](O)[C@H](O)CO [Mannitol]	75 mg/day	–	–	–
OC[C@H]1O[C@H](O[C@H]2O[C@H](CO)[C@@H](O)[C@H](O)[C@H]2O)[C@H](O)[C@@H](O)[C@@H]1O [Trehalose]	25.8 mg/day	–	–	–
COc1cccc(N2CCN(C3=Nc4c(F)cccc4[C@H](CC(=O)[O-])N3c3cc(C(F)(F)F)ccc3OC)CC2)c1.[Na+] [letermovir sodium trihydrate salt, Sodium 2-[(4S)-8-fluoro-2-[4-(3-methoxyphenyl)piperazin-1-yl]-3-[2-methoxy-5-(trifluoromethyl)phenyl]-4H-quinazolin-4-yl]acetate]	–	8.0	None of the reconstituted formulations precipitated	7.8
